Assay results as given in US7956219B2, “Amino acid analogues” (Baker IDI Heart and Diabetes, priority 2002, dated 2011).

Key:
rat aorta = experiment: Isolated aortic ring assay: acetyl choline-induced vascular relaxation; details: rat aorta sections; compound at 10^−8M
Procedure: FIG. 3 illustrates the augmentation of vascular relaxation produced by increasing concentrations of acetyl choline in the absence of and presence of test compounds. C indicates control.
Initially four compounds were tested for their effect on vascular tone, using an isolated aortic ring assay. In this assay, sections of rat aorta are mounted in an organ bath, and tension is determined continuously using a strain gauge, as described by Furchgott & Zawadski (1980). The effect of test compounds on the vasorelaxant effect of the endothelial-dependent vasodilator acetyl choline (ACh) was examined. […] It will be appreciated that similar experiments may be performed using sections of human aorta, coronary artery or peripheral artery obtained at surgery.

HeLa cells = experiment: Radiolabelled L-arginine uptake into HeLa cells; assay type: cell-based
Procedure: C: Control performed in the absence of test compound. […] Panel A: Compound A4; Panel B: Compound A7; Panel C: G10; Panel D: Compound H4.
In parallel with this assay, the capacity for these compounds to alter arginine entry into cells was assessed. Initial studies were conducted in HeLa cells. Arginine entry was determined by the rate of entry of radiolabelled L-arginine into the cells, using the method of Kaye et al., (2000). Of the total library, four compounds were identified which had inhibitory activity at a Ki of 100 μM. These compounds were as follows:
In the light of the foregoing discussion, we propose that this effect may be associated with therapeutic benefit.

EA.hy.926 = experiment: Arginine uptake by endothelial cell line EA.hy.926; assay type: cell-based; details: Homo sapiens, read-out: Arg uptake (% control) from FIG. 4; for activity at 0.1 µM: compound at 10^-7 M (bottom value); for activity at 0.01 µM: compound at 10^-8 M (top value)
From the text: Further studies have been performed to characterize the effects of compounds from library M0006 on arginine transport in endothelial cells. Studies performed in the endothelial cell line EA.hy.926 (Harrison-Shostak et al, 1997) have identified a number of compounds which exert a stimulatory effect on L-arginine transport. This cell line is considered to be more physiologically relevant than HeLa cells to the target conditions, and in fact was more sensitive. Table 16 summarises results for the compounds so far identified which have the highest activity in the arginine transport assay.

SMILES	augmentation of acetyl choline-induced vascular relaxation (rat aorta)	effect on L-arginine transport at low concentration (HeLa cells; HeLa cells, low concentration (10^−7 and 10^−8 M))	effect on L-arginine transport at high concentration (HeLa cells; high concentration)	activity at 0.1 µM (EA.hy.926) [%]	activity at 0.01 µM (EA.hy.926) [%]
N=C(NCc1cc(C(F)(F)F)cc(C(F)(F)F)c1)Nc1ccc(C(N)=O)cc1OCC1CCC1 [Compound A4]	significant augmentation				
N=C(NCc1cc(C(F)(F)F)cc(C(F)(F)F)c1)Nc1ccc(C(N)=O)cc1OCC1CCCCC1 [Compound G10, 3-Cyclohexylmelhoxy-4-[N′-(3,5-trifluoromethyl-benzyl)-guanidino]-benzamide]		enhance L-arginine transport at low concentration	inhibit such transport at high concentration		
N=C(NCc1ccc(Cl)c(Cl)c1)Nc1ccc(C(N)=O)cc1OCC1CCCCC1 [Compound H4, 3-Cyclohexylmethoxy-4-[N′-(3,4-dichloro-benzyl)-guanidino]-benzamide]	significant augmentation				
N=C(NCc1cc(C(F)(F)F)cc(C(F)(F)F)c1)Nc1ccc(C(N)=O)cc1OCC1CCC1 [M0006 01 A04]				108	103
N=C(NCc1ccc(Cl)c(Cl)c1)Nc1ccc(C(N)=O)cc1OCC1CCC1 [M0006 01 A07, 3-Cyclobutylmethoxy-4-[N′-(3,4-dichloro-benzyl)-guanidino]-benzamide]				66	87
N=C(NCc1ccccc1F)Nc1ccc(C(N)=O)cc1OCC1CCC1 [M0006 01 A11, 3-Cyclobutylmethoxy-4-[N′-(2-fluoro-benzyl)-guanidino]-benzamide]				128	159
Cc1ccc(CNC(=N)Nc2ccc(C(N)=O)cc2OCC2CCC2)cc1 [M0006 01 A12, 3-Cyclobutylmethoxy-4-[N′-(4-methyl-benzyl)-guanidino]-benzamide]				160	179
COc1ccccc1CNC(=N)Nc1ccc(C(N)=O)cc1OCC1CCC1 [M0006 01 B04, 3-Cyclobutylmethoxy-4-[N′-(2-methoxy-benzyl)-guanidino]-benzamide]				122	130
N=C(Nc1ccc(C(N)=O)cc1OCC1CCC1)NC1CCCCC1 [M0006 01 B12, 3-Cyclobutylmethoxy-4-(N′-cyclohexyl-guanidino)-benzamide]				134	161
CC(CNC(=N)Nc1ccc(C(N)=O)cc1OCC1CC1)c1ccccc1 (centres unmarked) [M0006 01 C12, 3-Cyclopropylmethoxy-4-[N′-(2-phenyl-propyl)-guanidino]-benzamide]				133	116
CC(CNC(=N)Nc1ccc(C(N)=O)cc1OCC1CCCCO1)c1ccccc1 (centres unmarked) [M0006 01 F05, 4-[N′-(2-Phenyl-propyl)-guanidino)-3-(tetrahydro-pyran-2-ylmethoxy)-benzamide]				130	135
N=C(NCc1ccccc1)Nc1ccc(C(N)=O)cc1OCC1CCCCO1 (centres unmarked) [M0006 01 F09, 4-(N′-Benzyl-guanidino)-3-(tetrahydro-pyran-2-ylmethoxy)-benzamide]				110	140
N=C(NCc1ccc2c(c1)OCO2)Nc1ccc(C(N)=O)cc1OCC1CCCCO1 (centres unmarked) [M0006 01 F10, 4-(N′-Benzo[1,3]dioxol-5-ylmethyl-guanidino)-3-(tetrahydro-pyran-2-ylmethoxy)-benzamide]				131	119
CC(C)CNC(=N)Nc1ccc(C(N)=O)cc1OCC1CCCCO1 (centres unmarked) [M0006 01 F12, 4-(N′-Isobutyl-guanidino)-3-(tetrahydro-pyran-2-ylmethoxy)-benzamide]				146	103
N=C(NCc1cc(C(F)(F)F)cc(C(F)(F)F)c1)Nc1ccc(C(N)=O)cc1OCC1CCCCC1 [M0006 01 G10]				188	125
N=C(NCc1ccc(Cl)c(Cl)c1)Nc1ccc(C(N)=O)cc1OCC1CCCCC1 [M0006 01 H04, 3-Cyclohexylmethoxy-4-[N′-(3,4-dichloro-benzyl)-guanidino]-benzamide]				92	99
COc1ccccc1CNC(=N)Nc1ccc(C(N)=O)cc1OCC1CCCCC1 [M0006 01 H10, 3-Cyclohexylmethoxy-4-[N′-(2-methoxy-benzyl)-guanidino]-benzamide]				146	153
N=C(NCc1ccccc1)Nc1ccc(C(N)=O)cc1OCC1CCCCC1 [M0006 01 H11, 4-(N′-Benzyl-guanidino)-3-cyclohexylmethoxy-benzamide]				190	131
N=C(NCC1CCCCC1)Nc1ccc(C(N)=O)cc1OCC1CCCCC1 [M0006 02 A10, 3-Cyclohexylmethoxy-4-(N′-cyclohexylmethyl-guanidino)-benzamide]				127	123
N=C(NCNc1ccc([N+](=O)[O-])cn1)Nc1ccc(C(N)=O)cc1OCc1ccccc1 [M0006 02 D06, 3-Benzyloxy-4-{N′-[(5-nitro-pyridin-2-ylamino)-methyl]-guanidino}-benzamide]				138	176
N=C(NCc1ccccc1)Nc1ccc(C(N)=O)cc1OCc1ccccc1 [M0006 02 E06, 4-(N′-Benzyl-guanidino)-3-benzyloxy-benzamide]				160	167
N=C(NCc1ccco1)Nc1ccc(C(N)=O)cc1OCc1ccccc1 [M0006 02 F06, 3-Benzyloxy-4-(N′-furan-2-ylmethyl-guanidino)-benzamide]				126	158
Cc1cccc(COc2cc(C(N)=O)ccc2NC(=N)NCc2ccco2)c1 [M0006 02 H08, 4-(N′-Furan-2-ylmethyl-guanidino)-3-(3-methyl-benzyloxy)-benzamide]				182	108
